Laboratory results from the NIST ThermoML archive (doi:10.1021/je700308j).

Experiments:
[1] = xn = mol fraction of the nth substance listed; details: 298.15 K, 101 kPa, Liquid
[2] = heat capacity at constant pressure per volume; xn = mol fraction of the nth substance listed; details: 298.15 K, 101 kPa, Liquid, Flow calorimetry

C1CCOC1 [tetrahydrofuran] + CCCO
Details | heat capacity, [2] [J/K/m3] | mass density, [1] [kg/m3]
x1 = 0.0482 | 1911000 | 804.27
x1 = 0.103 | 1891000 | 809.19
x1 = 0.1944 | 1858000 | 817.24
x1 = 0.3022 | 1819000 | 826.44
x1 = 0.3994 | 1782000 | 834.52
x1 = 0.499 | 1742000 | 842.64
x1 = 0.5994 | 1699000 | 850.66
x1 = 0.7016 | 1654000 | 858.7
x1 = 0.795 | 1610000 | 866.01
x1 = 0.9017 | 1560000 | 874.29
x1 = 0.9435 | 1541000 | 877.53

C1CCOC1 [tetrahydrofuran] + CCO
Details | heat capacity, [2] [J/K/m3] | mass density, [1] [kg/m3]
x1 = 0.0532 | 1907000 | 792.12
x1 = 0.0989 | 1889000 | 798.14
x1 = 0.2018 | 1849000 | 810.67
x1 = 0.3084 | 1808000 | 822.54
x1 = 0.4 | 1772000 | 832.02
x1 = 0.5015 | 1731000 | 841.8
x1 = 0.6074 | 1688000 | 851.3
x1 = 0.711 | 1643000 | 860.02
x1 = 0.8104 | 1599000 | 867.85
x1 = 0.9048 | 1556000 | 875.03
x1 = 0.9426 | 1540000 | 877.76

C1CCOC1 [tetrahydrofuran] + CO
Details | heat capacity, [2] [J/K/m3] | mass density, [1] [kg/m3]
x1 = 0.0989 | 1907000 | 804.78
x1 = 0.195 | 1850000 | 819.46
x1 = 0.2967 | 1797000 | 832.35
x1 = 0.4006 | 1747000 | 843.35
x1 = 0.4848 | 1714000 | 851
x1 = 0.5999 | 1667000 | 859.93
x1 = 0.6968 | 1631000 | 866.37
x1 = 0.7926 | 1594000 | 871.94
x1 = 0.8946 | 1555000 | 877.17
